Tests used:
[1] = system: visceral pain caused by acetic acid in normal mice; assay: Acetic acid-induced visceral pain (writhing test) after mibefradil injection; type: in vivo
Description: The present inventors injected 0.6% acetic acid into the peritoneal cavity of mice to examine the acetic acid-induced visceral pain response. The visceral pain is elicited secondarily to a delayed inflammatory response and induced abdominal stretching and writhing behavior (Gyires and Torma, Arch Int. Pharmacodyn. Ther., 1984, 267:131-140). Mice were placed individually in a transparent home cage (24×18×12 cm) and allowed to acclimate for at least 60 min. Then, 0.6% acetic acid ([…]) was injected into the peritoneum, after which the mice was returned to the testing chamber. The number of abdominal stretches or writhing motions was counted for 20 min. All mice were used only once in this experiment. […]
Particularly, in order to find out how mibefradil, the T-type calcium channel inhibitor functions, mibefreail was dissolved in 0.9% of NaCl at the concentration of 5 mg/ml. The degree of writhing was measured in a visceral pain inducing experiment 20 minutes after the injection of the said mibefradil at the concentration of 1, 10 and 30 mg/kg respectively in peritoneum of the mice.

[2] = inside the body, after peripheral (peritoneal) injection; cited from earlier work

## COCC(=O)O[C@]1(CCN(C)CCCc2nc3ccccc3[nH]2)CCc2cc(F)ccc2[C@@H]1C(C)C [mibefradil, Mibefradil]
[1]; normal (wild-type) mice, mibefradil 1, 10 and 30 mg/kg in peritoneum, 20 minutes before test, 0.6% acetic acid i.p., FIG. 4
  degree of writhing / visceral pain caused by acetic acid: induced analgesia
[1]; wild-type mice, mibefradil injected in the brain
  visceral pain caused by acetic acid: enhanced
[2]
  passage through the brain barrier: cannot pass through the brain barrier
